Patent US7371766B2, “Curcumin analogs with anti-tumor and anti-angiogenic properties” (Emory University, priority 1999, dated 2008)
Where two headings read alike, the source gives them in different places.

How the values were obtained:
SF-539 = experiment: cells; details: Homo sapiens, SF-539, 48 h
COLO 205 = experiment: cells; details: Homo sapiens, COLO 205, 48 h
A498 = experiment: cells; details: Homo sapiens, A498, 48 h
MDA-MB-231 = experiment: cells; details: Homo sapiens, MDA-MB-231, 48 h
HT29 = experiment: cells; details: Homo sapiens, HT-29, 48 h
NCI-H23 = experiment: cells; details: Homo sapiens, NCI-H23, 48 h
LOX IMVI = experiment: cells; details: Homo sapiens, 48 h
SF-295 = experiment: cells; details: Homo sapiens, SF-295, 48 h
EKVX = experiment: cells; details: Homo sapiens, 48 h
RPMI-7951 human melanoma = experiment: Neutral Red Assay, cell viability, RPMI-7951; details: Homo sapiens
Experimental: (§1) RPMI-795 1, MDA-MB-231 and MDA-MB-435 cell lines were cultured in MEM-alpha medium (GIBCO-BRL, Long Island, N.Y.) containing 10% fetal bovine serum (RPMI-7951, MDA-MB-231) or 5% FBS (MDA-MB-435) at 37° C. and under 5% CO2/95% air. […] The cells were cultured in 48 well plates in all of the experiments described.
Neutral Red Assay was utilized to determine the effect of the compounds of the present invention on cell viability. Neutral Red was purchased from GIBCO-BRL (Long Island, N.Y.). Cells were plated at a concentration of 20,000 cells/well and cultured overnight. Compounds or vehicle (DMSO 0.1%) were then added and the plates were incubated for 72 hours. Supernatant from each well was either aspirated or collected and media containing Neutral Red (GIBCO-BRL, Long Island, N.Y.) at a concentration of 15 μl/ml was then added to each well. The plates were then incubated at 37° C. for 30 minutes. Next, the cells were washed with twice with PBS and alcoholic-HCl (0.5N—HCl/35% ethanol) was added to each well. The plates were then placed on a plate shaker until all residues were solubilized (pink color). The solubilized mixtures were then transferred to a 96 well plate and the absorbances were read on a micro-test plate reader at a wavelength of 570 nm.
Cell viability was determined by Neutral Red Assay.

SK-MEL-2 = experiment: cells; details: Homo sapiens, SK-MEL-2, 48 h
HS 578T = experiment: cells; details: Homo sapiens, 48 h
IGROV1 = experiment: cells; details: Homo sapiens, IGROV-1, 48 h
NCI-H226 = experiment: cells; details: Homo sapiens, NCI-H226, 48 h
PC-3 = experiment: cells; details: Homo sapiens, PC-3, 48 h
HL-60 (TB) = experiment: cells; details: Homo sapiens, HL-60, 48 h
MOLT-4 = experiment: cells; details: Homo sapiens, MOLT-4, 48 h
SW-620 = experiment: cells; details: Homo sapiens, SW-620, 48 h
[1] = system: Vascular Endothelial Growth Factor (VEGF) production by human melanoma cell line RPMI-7951; experiment: VEGF ELISA, RPMI-7951; details: for VEGF ELISA / VEGF: RPMI-7951; for VEGF ELISA: DMSO control 3713
Experimental: as §1
A VEGF enzyme-linked immunosorbent assay (ELISA) was utilized to determine the effect of the compounds of the present invention on VEGF production of a variety of human cancer cell lines. For the VEGF assay, cells were plated at a concentration of 80,000 cells/well and cultured overnight. Compounds or vehicle (DMSO 0.1%) were then added and the plates were incubated for 72 hours. Supernatant was then collected from each well and frozen in a −80° C. freezer until needed. Cell viability was determined by Neutral Red Assay. VEGF ELISA Kit (R & D, Minneapolis, Minn.) was used to determine the amount of VEGF in the culture supernatants. The ELISA was carried out according to the manufacturer's procedure.

UACC-62 = experiment: cells; details: Homo sapiens, UACC-62, 48 h
UACC-257 = experiment: cells; details: Homo sapiens, UACC-257, 48 h
U251 = experiment: cells; details: Homo sapiens, U-251, 48 h
786-0 = experiment: cells; details: Homo sapiens, 786-0, 48 h
SNB-19 = experiment: cells; details: Homo sapiens, SNB-19, 48 h
NCI/ADR-RES = experiment: cells; details: Homo sapiens, 48 h
CAKI-1 = experiment: cells; details: Homo sapiens, CAKI-1, 48 h
MDA-MB-435 = experiment: cells; details: Homo sapiens, MDA-MB-435, 48 h
ACHN = experiment: cells; details: Homo sapiens, 48 h
NCI-H522 = experiment: cells; details: Homo sapiens, NCI-H522, 48 h
[2] = read-out: Median Growth Inhibitory Concentration (GI50)
[3] = read-out: Median Lethal Concentration (LC50)
[4] = RPMI-7951, 72 h, read-out: Neutral Red Uptake, %
[5] = RPMI-7951, read-out: Cell Viability
[6] = Homo sapiens, RPMI-7951, 72 h, read-out: VEGF

## O=C(C=Cc1ccc(F)cc1F)C=Cc1ccc(F)cc1F [EF9, 1,5-Bis(2,4-difluorophenyl)penta-1,4-dien-3-one]
SF-539; [2]
  GI50: 2.6 µM
SF-539; [3]
  CC50: 23.1 µM
COLO 205; [2]
  GI50: 7.6 µM
COLO 205; [3]
  CC50: 52.8 µM
A498; [2]
  GI50: 2.4 µM
A498; [3]
  CC50: 23 µM
MDA-MB-231; [2]
  GI50: 14.1 µM
MDA-MB-231; [3]
  CC50: 57.7 µM
HT29; [2]
  GI50: 4.1 µM
HT29; [3]
  CC50: 41.9 µM
NCI-H23; [2]
  GI50: 12.3 µM
NCI-H23; [3]
  CC50: 62.3 µM
LOX IMVI; [2]
  GI50: 3.4 µM
LOX IMVI; [3]
  CC50: 67.6 µM
SF-295; [2]
  GI50: 14.2 µM
SF-295; [3]
  CC50: 58.8 µM
EKVX; [2]
  GI50: 11.8 µM
EKVX; [3]
  CC50: 49.1 µM
RPMI-7951 human melanoma; [4]
  viability at 5 µM: 88%
  viability at 20 µM: 11%
RPMI-7951 human melanoma; [5]
  viability at 5 µM: 92%
  viability at 20 µM: 70%
SK-MEL-2; [2]
  GI50: 14.5 µM
SK-MEL-2; [3]
  CC50: 58.9 µM
HS 578T; [2]
  GI50: 9.9 µM
HS 578T; [3]
  CC50: > 100 µM
IGROV1; [2]
  GI50: 3.8 µM
IGROV1; [3]
  CC50: 46.2 µM
NCI-H226; [2]
  GI50: 24.3 µM
NCI-H226; [3]
  CC50: > 100 µM
PC-3; [2]
  GI50: 4.8 µM
PC-3; [3]
  CC50: 41 µM
HL-60 (TB); [2]
  GI50: 4.2 µM
HL-60 (TB); [3]
  CC50: > 100 µM
MOLT-4; [2]
  GI50: 9.3 µM
MOLT-4; [3]
  CC50: > 100 µM
SW-620; [2]
  GI50: 3.2 µM
SW-620; [3]
  CC50: 62.6 µM
[1]; [6]
  activity at 5 µM: 46%
  activity at 20 µM: 14%
[1]; 5 μM
  VEGF ELISA: 1868 pg/ml/well
[1]; 5 μM, DMSO control 4197 (EF-25: 1045)
  VEGF: 1925 pg/mL
[1]; 20 μM
  VEGF ELISA: 705 pg/ml/well
[1]; 20 μM, DMSO control 4197
  VEGF: 595 pg/mL
UACC-62; [2]
  GI50: 13.9 µM
UACC-62; [3]
  CC50: 52.8 µM
UACC-257; [2]
  GI50: 16 µM
UACC-257; [3]
  CC50: 62.1 µM
U251; [2]
  GI50: 2.1 µM
U251; [3]
  CC50: 12.9 µM
786-0; [2]
  GI50: 3.5 µM
786-0; [3]
  CC50: 49.6 µM
SNB-19; [2]
  GI50: 14.7 µM
SNB-19; [3]
  CC50: 58.8 µM
NCI/ADR-RES; [2]
  GI50: 30.7 µM
NCI/ADR-RES; [3]
  CC50: > 100 µM
CAKI-1; [2]
  GI50: 15 µM
CAKI-1; [3]
  CC50: 93.4 µM
MDA-MB-435; [2]
  GI50: 3.2 µM
MDA-MB-435; [3]
  CC50: 35.9 µM
ACHN; [2]
  GI50: 16.5 µM
ACHN; [3]
  CC50: 54.8 µM
NCI-H522; [2]
  GI50: 13.4 µM
NCI-H522; [3]
  CC50: 57.1 µM
